According to US6596878B2, “Methods and compositions for inhibiting cell proliferative disorders” (Yissum Research & Development Company of the Hebrew …, priority 1994, dated 2003):
Like-named read-outs stand apart in the source and are kept apart here.

Tests used:
human EGF receptor = target: T1, human EGF receptor (Homo sapiens, UniProt P00533); experiment: EGF-receptor whole cell kinase assay (EGFR-3T3); assay type: cell-based
T1 construct: expressed in transfected cells; host or cells: NIH3T3 clone C7 (EGFR/C7; mouse fibroblasts)
T1 sequence (P00533 25-1210): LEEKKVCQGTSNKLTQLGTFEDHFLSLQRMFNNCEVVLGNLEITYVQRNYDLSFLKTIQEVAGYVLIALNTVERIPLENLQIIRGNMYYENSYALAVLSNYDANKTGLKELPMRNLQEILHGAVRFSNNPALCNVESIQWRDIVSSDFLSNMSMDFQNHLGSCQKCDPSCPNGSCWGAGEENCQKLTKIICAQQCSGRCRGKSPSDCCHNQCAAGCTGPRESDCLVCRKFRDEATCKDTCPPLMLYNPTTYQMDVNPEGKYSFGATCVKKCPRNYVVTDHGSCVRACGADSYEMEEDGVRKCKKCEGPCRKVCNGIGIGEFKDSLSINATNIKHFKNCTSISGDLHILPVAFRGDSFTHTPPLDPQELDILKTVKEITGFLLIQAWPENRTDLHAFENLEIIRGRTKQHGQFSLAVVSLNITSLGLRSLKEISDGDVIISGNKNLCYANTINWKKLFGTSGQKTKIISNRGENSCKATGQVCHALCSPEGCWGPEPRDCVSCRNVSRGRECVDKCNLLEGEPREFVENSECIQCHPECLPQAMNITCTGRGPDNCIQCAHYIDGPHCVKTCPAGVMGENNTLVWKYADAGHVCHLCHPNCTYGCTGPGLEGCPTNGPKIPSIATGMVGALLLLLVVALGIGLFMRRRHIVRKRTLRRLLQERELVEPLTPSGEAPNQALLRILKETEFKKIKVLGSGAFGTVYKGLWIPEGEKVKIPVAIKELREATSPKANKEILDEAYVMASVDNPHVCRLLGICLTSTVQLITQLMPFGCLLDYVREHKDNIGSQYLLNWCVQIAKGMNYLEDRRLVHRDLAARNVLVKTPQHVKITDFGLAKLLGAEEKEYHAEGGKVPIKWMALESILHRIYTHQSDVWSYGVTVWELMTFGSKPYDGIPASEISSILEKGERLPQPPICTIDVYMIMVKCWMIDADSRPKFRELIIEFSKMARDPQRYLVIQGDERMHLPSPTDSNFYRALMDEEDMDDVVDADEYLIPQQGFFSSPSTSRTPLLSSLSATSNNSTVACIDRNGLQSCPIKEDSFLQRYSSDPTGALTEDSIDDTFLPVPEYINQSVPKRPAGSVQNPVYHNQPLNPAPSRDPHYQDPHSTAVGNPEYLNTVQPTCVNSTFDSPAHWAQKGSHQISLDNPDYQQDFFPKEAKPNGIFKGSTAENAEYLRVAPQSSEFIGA
Protocol: (§1) The following target cells were used for cellular kinaseassays: NIH3T3 clone C7 (Honegger et al., supra) engineered to over-express human EGF receptor; NIH3T3 cells engineered to over-express a chimeric receptor containing the EGFR extracellular domain and the HER2 intracellular kinase domain; the human mammary carcinoma line BT474 (ATCC HTB2) expressing HER2; and the human glioblastoma line U1242 that expresses PDGFR-β. Growth assays were carried out using human mammary epithelial SKBR3 (ATCC HTB30) cells, SKOV3 (ATCC HTB77) human ovarian cancer cell line, A431 cells, MCF7 human breast carcinoma cells, MCF7 cells overexpress the HER2 kinase (MCF7-HER2), NIH3T3 cells, and NIH3T3 cells overexpressing the HER2 kinase (3T3-HER2).
Unless otherwise stated the effect of various compounds on receptor tyrosine kinases were assayed as described in this section.
1. EGF-receptor Whole Cell Kinase Assay
EGFR kinase activity (EGFR-3T3 assay) in whole cells was measured as described below:
The following protocol was used:
A. Coat ELISA plates (Corning, 96 well, Cat. #25805-96) with 05-101 antibody at 0.5 μg per well in PBS, 150 μl final volume/well, and store overnight at 4° C. Coated plates are good for up to 10 days when stored at 4° C.
B. On day of use, remove coating buffer and replace with blocking buffer (5% Carnation Instant Non-Fat Dry Milk in PBS). Incubate the plate, shaking, at room temperature (about 23° C. to 25° C.) for 30 minutes. Just prior to use, remove blocking buffer and wash plate 4 times with TBST buffer.
A. EGFR/C7 cell line (Honegger, et al., Cell 51:199-209, 1987) can be use for this assay.
B. Choose dishes having 80-90% confluence for the experiment. Trypsinize cells and stop reaction by adding 10% CS DMEM medium. Suspend cells in DMEM medium (10% CS DMEM medium) and centrifuge once at 1000 rpm, and once at room temperature for 5 minutes.
C. Resuspend cells in seeding medium (DMEM, 0.5% bovine serum), and count the cells using trypan blue. Viability above 90% is acceptable. Seed cells in DMEM medium (0.5% bovine serum) at a density of 10,000 cells per well, 100 μl per well, in a 96 well microtiter plate. Incubate seeded cells in 5% CO2 at 37° C. for about 40 hours.
A. Check seeded cells for contamination using an inverted microscope. Dilute drug stock (10 mg/ml in DMSO) 1:10 in DMEM medium, then transfer 5 μl to a test well for a final drug dilution of 1:200 and a final DMSO concentration of […]. Control wells receive DMSO alone. Incubate in 5% CO2 at 37° C. for one hour.
B. Prepare EGF ligand: dilute stock EGF in DMEM so that upon transfer of 10 μl dilute EGF (1:12 dilution), 25 nM final concentration is attained.
C. Prepare fresh HNTG* sufficient for 100 μl per well; and place on ice.
D. After two hours incubation with drug, add prepared EGF ligand to cells, 10 μl per well, to yield a final concentration of 25 nM. Control wells receive DMEM alone. Incubate, shaking, at room temperature, for 5 minutes.
E. Remove drug, EGF, and DMEM. Wash cells twice with PBS. Transfer HNTG* to cells, 100 μl per well. Place on ice for 5 minutes. Meanwhile, remove blocking buffer from other ELISA plate and wash with TBST as described above.
F. With a pipette tip securely fitted to a micropipettor, scrape cells from plate and homogenize cell material by repeatedly aspirating and dispensing the HNTG* lysis buffer. Transfer lysate to a coated, blocked, and washed ELISA plate. Incubate shaking at room temperature for one hour.
G. Remove lysate and wash 4 times with TBST. Transfer freshly diluted anti-Ptyr antibody to ELISA plate at 100 μl per well. Incubate shaking at room temperature for 30 minutes in the presence of the anti-Ptyr antiserum (1:3000 dilution in TBST).
H. Remove the anti-Ptyr antibody and wash 4 times with TBST. Transfer the freshly diluted TAGO anti-rabbit IgG antibody to the ELISA plate at 100 μl per well.

HER2 = target: T2, HER2 (Homo sapiens, UniProt P04626); experiment: HER2-BT474 whole cell kinase ELISA; assay type: cell-based
T2 construct: the human mammary carcinoma line BT474 (ATCC HTB2) expressing HER2; endogenous in cells; host or cells: BT474 human mammary carcinoma cells
T2 sequence (P04626 23-1255): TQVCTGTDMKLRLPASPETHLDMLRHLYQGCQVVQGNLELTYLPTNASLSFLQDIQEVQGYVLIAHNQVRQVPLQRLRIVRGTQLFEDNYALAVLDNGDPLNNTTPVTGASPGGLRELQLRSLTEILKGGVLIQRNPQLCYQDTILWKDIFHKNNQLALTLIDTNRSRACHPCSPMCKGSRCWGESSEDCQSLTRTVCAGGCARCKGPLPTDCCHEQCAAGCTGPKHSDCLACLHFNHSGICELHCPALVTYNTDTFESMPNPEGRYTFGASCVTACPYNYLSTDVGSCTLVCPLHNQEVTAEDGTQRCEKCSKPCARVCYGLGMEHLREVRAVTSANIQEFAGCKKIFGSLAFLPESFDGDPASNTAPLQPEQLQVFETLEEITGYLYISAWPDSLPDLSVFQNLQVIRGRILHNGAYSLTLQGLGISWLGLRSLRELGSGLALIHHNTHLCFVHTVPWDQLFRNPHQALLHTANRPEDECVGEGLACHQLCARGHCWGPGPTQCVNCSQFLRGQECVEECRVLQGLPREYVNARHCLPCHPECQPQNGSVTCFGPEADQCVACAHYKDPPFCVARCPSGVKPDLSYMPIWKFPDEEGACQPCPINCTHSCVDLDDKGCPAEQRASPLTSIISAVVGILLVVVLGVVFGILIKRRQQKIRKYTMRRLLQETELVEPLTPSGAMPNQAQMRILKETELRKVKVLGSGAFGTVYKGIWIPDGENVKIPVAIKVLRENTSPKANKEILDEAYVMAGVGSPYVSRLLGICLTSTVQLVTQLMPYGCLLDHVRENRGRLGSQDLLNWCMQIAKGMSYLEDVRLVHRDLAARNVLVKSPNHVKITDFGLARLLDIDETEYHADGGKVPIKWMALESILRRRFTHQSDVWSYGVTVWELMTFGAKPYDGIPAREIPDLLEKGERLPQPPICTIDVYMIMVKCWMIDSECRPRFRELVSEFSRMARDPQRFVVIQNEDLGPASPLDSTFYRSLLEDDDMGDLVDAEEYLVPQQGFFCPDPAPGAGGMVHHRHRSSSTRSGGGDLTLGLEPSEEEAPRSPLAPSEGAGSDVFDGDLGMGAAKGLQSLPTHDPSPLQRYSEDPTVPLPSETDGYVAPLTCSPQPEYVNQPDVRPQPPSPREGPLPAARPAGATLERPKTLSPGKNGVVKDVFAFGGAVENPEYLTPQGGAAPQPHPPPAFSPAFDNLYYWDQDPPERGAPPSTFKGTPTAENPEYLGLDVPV
Protocol: HER2-BT474 assays measuring whole cell HER2 activity was carried out as described below:
All the following steps are at room temperature and aseptically, unless stated otherwise. All ELISA plate washing is by rinsing with distilled water three times and once with TBST.
Incubate the cells in 5% CO2 at 37° C. overnight.
2. ELISA Plate Coating and Blocking

[1] = tested on: MCF7 human breast carcinoma cells; experiment: MCF-7 SRB growth assay; assay type: cell-based; details: Table VI, 10% FBS, four days
Text: as §1, with “This example illustrates the ability of the exemplary compounds to inhibit receptor tyrosine kinases, such as HER2 and/or EGFR. The” for “The”
6. MCF-7 SRB Growth Assay
(§2) MCF-7 cells are seeded at 2000 cells/ well in a 96-well flat bottom plate in normal growth media, which was 10% FBS/RPMI supplemented with 2 mM Glutamine. The plate of cells is incubated for about 24 hours at 37° C. after which it receives an equal volume of compound dilution per well making the total volume per well 200 μl. The compound is prepared at 2 times the desired highest final concentration and serially diluted in the normal growth media in a 96-well round bottom plate and then transferred to plate of cells. DMSO serves as the vector control up to 0.2% as final concentration. The cells are then incubated at 37° C. in a humidified 5% CO2 incubator.
(§3) Four days following dosing of compound, the media is discarded and 200 μl/well of ice-cold 10% TCA (Trichloroacetic Acid) is added to fix cells. After 60 minutes at 4° C., the TCA is discarded and the plate is rinsed 5 times with water. The plate is then air-dried and 100 μl/well of 0.4% SRB (Sulforhodamine B from Sigma) in 1% Acetic Acid is added to stain cells for 10 minutes at room temperature. The SRB is discarded and the plate is rinsed 5 times with 1% Acetic Acid. After the plate is completely dried, 100 μl/well of 10 mM Tris-base is added to solubilize the dye. After 5 to 10 minutes, the plate is read on a Dynatech ELISA Plate Reader at dual wavelengths at 570 nm and 630 nm.

[2] = tested on: MCF7 cells overexpress the HER2 kinase (MCF7-HER2); experiment: MCF-7/HER-2 SRB growth assay; assay type: cell-based, human; details: Table VI, 0.5% FBS, four days
Text: as §1, with “This example illustrates the ability of the exemplary compounds to inhibit receptor tyrosine kinases, such as HER2 and/or EGFR. The” for “The”
as §2, §3
8. MCF-7/HER-2 SRB Growth Assay
The protocol is basically the same as that above (for the MCF-7 Growth Assay) except that immediately before the compound is added, the normal growth media is removed and 0.5% FBS/RPMI supplemented with 2 mM Glutamine is added onto the cells. The compound is also prepared in this 0.5% serum media. The plate of cells is incubated for four days and developed as usual.

A431 cells = experiment: A431 growth assay (sulphorhodamine B); assay type: cell-based; details: Homo sapiens, A-431, 96 h; Table V; 4 days, SRB; read-out: Estimated IC50 Growth Assays A431 cells
Text: as §1, with “This example illustrates the ability of the exemplary compounds to inhibit receptor tyrosine kinases, such as HER2 and/or EGFR. The” for “The”
SKBR3 cells over-express HER2. A431 cells over-express EGFR. These cells were dispensed into 96-well plates with test compounds. After 4 days the monolayers were TCA-fixed then stained with sulphorhodamine B. The absorbance versus log drug concentration was plotted and IC50 values estimated.
(4) Tris, crystallized free base—Fisher Catalog #BP152 Working solution: 10 mM tris=1.211 gram Trizma base/liter H2O. […]
(11) Read optical density at dual wavelength mode 570 nm and 630 nm on Dynatech ELISA plate reader, Model MR 5000.

[3] = Table V, read-out: Estimated IC50 Cellular Kinase Assays EGFR (EGF-3T3)
[4] = Table VI, cellular kinase assay, read-out: EGFR-3T3
[5] = HER2-BT474, Table VI, cellular kinase assay
[6] = Table V, read-out: Estimated IC50 Cellular Kinase Assays HER2 (BT474)
[7] = Table VI, cellular kinase assay, read-out: HER2-BT474
[8] = Estimated IC50 Cellular Kinase Assays HER2 (BT474), Table V
[9] = Table III, cellular kinase assay, class symbol, read-out: EGFR
[10] = Table III, cellular kinase assay, class symbol, read-out: HER2

Row | Structure (SMILES) | IC50 (human EGF receptor; [3]) [µM] | IC50 (human EGF receptor; [4]) [µM] | IC50 (HER2; [6]) [µM] | IC50 (HER2; [7]) [µM] | also measured
1 | N#C/C(=C\c1ccc(O)c(O)c1)C(=O)NCCCCc1ccccc1 [Compound M10] | > 50 | ≥ 50 | 30.6 | – | IC50 (HER2; [5]): 30.6 µM
2 | N#CC(C#N)=Cc1cc(O)c(O)c(I)c1 [Compound M12] | 13.4 | 13.4 | > 50 | > 50 | –
3 | CC(C)(C)c1cc(C=C(C#N)C#N)cc(Br)c1O [Compound M14] | 37.2 | 37.2 | > 50 | > 50 | –
4 | CC(C)(C)c1cc(C=C(C#N)c2[nH]nc(N)c2C#N)cc(C(C)(C)C)c1O [Compound M17] | 8.65 | 8.65 | 8.58 | 8.58 | –
5 | CC(C)c1cc(C=C(C#N)C#N)cc(C(C)C)c1O [Compound M19] | > 50 | > 50 | – | – | IC50 (HER2; [8]): 10.6 µM; IC50 (HER2; [5]): 10.6 µM
6 | N#C/C(=C\c1cc(O)c(O)c(I)c1)C(=O)NCc1ccccc1 [Compound M23] | – | 17 | – | 26 | –
7 | CC(C)c1cc(/C=C(\C#N)C(N)=S)cc(C(C)C)c1O [Compound M25, (E)-2-Aminothiocarbonyl-3-(3,5-diisopropyl-4-hydroxyphenyl)acrylonitrile] | – | > 100 | – | 3.1 | –
8 | CC(C)c1cc(/C=C(\C#N)C(=O)Nc2ccc(C(F)(F)F)cc2)cc(C(C)C)c1O [Compound M28, (E)-3-(3,5-Diisopropyl-4-hydroxyphenyl)-2-[(4-trifluoromethyl)phenylaminocarbonyl]acrylonitrile] | – | – | – | 2.2 | IC50 ([1]; Homo sapiens, MCF7, 96 h): 12 µM; IC50 ([2]; Homo sapiens, MCF7, 96 h): 2 µM
9 | Cc1cc(/C=C(\C#N)S(=O)(=O)/C(C#N)=C/c2cc(C)c(O)c(C)c2)cc(C)c1O [Compound M38] | – | > 100 | – | 14 | activity in cellular assays (HER2; cellular assays of the Examples, versus analogous compounds having bulkier R1 and R3 groups): less activity; IC50 [1]: > 100 µM; IC50 [2]: > 100 µM
10 | N#C/C(=C\c1ccc([N+](=O)[O-])c(O)c1)C(=O)NCCCc1ccccc1 [Compound M39, (E)-3-(3-Hydroxy-4-nitrophenyl)-2-[(3-phenyl-n-propyl)aminocarbonyl]acrylonitrile] | – | 6.8 | – | 39 | –
11 | N#CC(C#N)=NNc1cccc(Cl)c1 [Compound Q11] | – | – | – | – | IC50 (human EGF receptor; Estimated IC50 Cellular Kinase Assays EGFR (EGF-3T3), Table V): > 50 µM; IC50 (HER2; [8]): 11.1 µM; inhibition of HER2 activity (HER2; significantly inhibit = IC50 less than 50 μM): significantly inhibited

The next lines start with results.

Row | IC50 (human EGF receptor; [3]) [µM] | IC50 (human EGF receptor; [4]) [µM] | IC50 (HER2; [6]) [µM] | IC50 (HER2; [7]) [µM] | Structure (SMILES) | also measured
12 | 0.04 | – | 7.14 | – | Cc1ccc2ncnc(Nc3cccc(Cl)c3)c2c1 [Compound P12a] | IC50 (human EGF receptor; [9]): < 50 µM; IC50 (A431 cells): 10 µM; IC50 (HER2; [10]): < 50 µM
13 | – | – | 1.6 | – | COc1cc2ncnc(Nc3cccc(Cl)c3)c2cc1OC [Compound P13a] | IC50 (HER2; [10]): < 50 µM
14 | 22.2 | – | > 50 | – | Cc1ccc2ncnc(Nc3ccc4c(c3)OCO4)c2c1 [Compound P14a] | IC50 (human EGF receptor; [9]): < 50 µM; IC50 (HER2; [10]): > 50 µM
15 | 20.9 | – | > 50 | – | Cc1ccc2ncnc(Nc3ccc4c(c3)OCO4)c2c1 [Compound P14b] | IC50 (human EGF receptor; [9]): < 50 µM; IC50 (HER2; [10]): > 50 µM
16 | 35.5 | – | 20.7 | – | Cc1cc2nc(CBr)c(-c3ccccc3)nc2cc1C [Compound R9] | –
17 | 25 | – | 25 | – | Clc1cc2ncc(-c3ccccc3)nc2cc1Cl [Compound R14] | –
18 | 25 | – | > 50 | – | Cc1cc2nc3c(nc2cc1C)-c1ccccc1C3=O [Compound R15] | –
